The source of these data is US20220267288A1, “CARDIAC THERAPEUTIC” (priority 2019, published 2022).

Each structure is given as a SMILES string.

The target of series [1] is T1, CYP3A5 (Homo sapiens, UniProt P20815).
T1 construct: purchased BD Gentest (Woburn, Mass.)
Conditions: literature value, similar experimental set-up; cited from earlier work.

Series [2] concerns H9c2 cells. Kind of series: Cytotoxicity (dead-cell protease, Mitochondrial ToxGlo) in differentiated H9c2 cells. It is filed as cell-based. The method, then:
(§1) H9c2 cell line was purchased from American Tissue Type Collection (ATCC) (Manassas, Va.). The cells were cultured in low-glucose DMEM growth media (Cat No: 31600, Thermo Fisher Scientific, Waltham, Mass.) supplemented with 1.5 g/L sodium bicarbonate, 25 mM HEPES, 10% fetal bovine serum (FBS) (GE Healthcare, Singapore), 100 units/mL penicillin, 100 μg/mL streptomycin and 250 ng/mL amphotericin B in 75-cm^2 tissue-culture flasks at 37° C. in a humidified atmosphere of 5% CO2. Cells were fed every 2-3 days and sub-cultured once 70-80% confluency was achieved to prevent the loss of differentiation potential. For differentiation, H9c2 cells were seeded at a density of 100,000 cells/well in 12-well plates. The cells were maintained for 1 day in low-glucose high-serum growth media to allow for cell attachment. Subsequently, cells were differentiated using 1 μM ATRA.
(§2) H9c2 cells were seeded in a white chimney plate and differentiated. The media was changed to DMEM with 10 mM galactose, 2 mM glutamine (6 mM final), 5 mM HEPES, 1 mM sodium pyruvate, 100 U/mL penicillin, 100 μg/mL streptomycin, 0.25 μg/mL amphotericin B, 1% FBS, 1× insulin-transferrin-selenium and 1 μM ATRA for 48 h to overcome the Crabtree effect. […] The cytotoxicity and intracellular ATP content were measured concurrently using Mitochondrial ToxGlo™ kit (Promega, Madison, Wis.) using manufacturer's protocol. Mitochondrial ToxGlo™ assay measures the cell viability using fluorogenic peptide bis-alanine-alanine-phenylalanine-R110 (bis-AAF-R110). Bis-AAF-R110 is a selective peptide that measures protease activity in dead cells since it is impermeable to live cells. Here, the fluorescence derived from metabolized bis-AAF-R110 was measured at different concentrations of the test compounds and compared to control. As the concentration of cytotoxic compound increases, the number of dead cells increases, leading to a higher fluorescence signal. ATP is measured by adding the ATP Detection Reagent, resulting in cell lysis and generation of a luminescent signal proportional to the amount of ATP present. […]

Assay in series [3]: as above
Conditions: rat, differentiated H9c2 cells, 6 h exposure, read-out: cytotoxicity EC50 (bis-AAF-R110 dead-cell protease fluorescence). The series is classed as cell-based. The method, then: as §1, §2

Series [4] concerns chronic atrioventricular block dog. Kind of series: Paroxysmal atrial fibrillation model in chronic atrioventricular block dogs. The series is classed as in vivo. How it is done:
Experiments were performed using female beagle dogs weighing approximately 10 kg (n=4). Animals were obtained through Kitayama Labes Co., Ltd. (Nagano, Japan). All experiments were approved by the Toho University Animal Care and User Committee (No. 19-52-395) and performed according to the Guideline for the Care and Use of Laboratory Animals of Toho University.
The catheter ablation technique of atrioventricular node was employed as previously described^11,14. The dogs were anesthetized with pentobarbital sodium (30 mg/kg, i.v.). After intubation with a cuffed endotracheal tube, the respiration was controlled with room air using a volume-limited ventilator (SN-480-3; Shinano Manufacturing Co., Ltd., Tokyo, Japan). Tidal volume and respiratory rate were set at 20 mL/kg and 15 breaths/min, respectively. Heparin calcium (100 IU/kg, i.v.) was administered to prevent blood clotting. The surface lead II electrocardiogram was continuously monitored. A quad-polar electrodes catheter with a large tip of 4 mm (D7-DL-252; Cordis-Webster Inc., CA, USA) was inserted through the catheter sheath (FAST-CATH™ 406119; St. Jude Medical Daig Division, Inc., Minnetonka, Minn., USA) placed at the right femoral vein and positioned across the tricuspid valve under the guide of bipolar electrogram from the distal electrode pair. The optimal site for the atrioventricular node ablation; namely, the compact atrioventricular node, was determined on the basis of the intra-cardiac electrogram, of which a very small His deflection was recorded and atrial/ventricular voltage ratio was >2. The power source for the atrioventricular nodal ablation was obtained from an electrosurgical generator (MS-1500; Senko Medical Instrument Manufacturing Co., Ltd., Tokyo, Japan), which delivers continuous unmodulated radiofrequency energy at a frequency of 500 kHz. After determining the proper location, the radiofrequency energy of 20 W was delivered for 10 s from the tip electrode to an indifferent patch electrode positioned on the animal's back, which was continued then for 30 s if junctional ectopic complexes were induced. The endpoint of this procedure was the development of the complete atrioventricular block with an onset of stable idioventricular escaped rhythm. All surgical procedures described above were performed under the sterile condition.
The paroxysmal atrial fibrillation model was prepared as previously reported^12,13. More than 3 months after the induction of atrioventricular block, the dogs (n=4) were anesthetized with pentobarbital sodium (30 mg/kg, i.v.). After intubation with a cuffed endotracheal tube, the dogs were artificially ventilated with 0.5-1.5% isoflurane in oxygen using a volume-limited ventilator (SN-480-3; Shinano Manufacturing Co., Ltd.). Tidal volume and respiratory rate were set at 20 mL/kg and 15 breaths/min, respectively. The surface lead II electrocardiogram was obtained from the limb electrodes. […] An indwelling needle (Surflo® 18G; Terumo Corporation, Tokyo, Japan) was placed at the right femoral artery, through which the arterial blood pressure was measured.
Three sets of standard 6-French quad-polar electrodes catheter (Cordis-Webster Inc.) were used. First one was positioned at the high right atrium through the right femoral vein to electrically pace the sinus nodal area and to simultaneously obtain the right atrial electrogram. Second one was positioned in the esophagus via os to record to the left atrial electrogram. Third one was positioned at the inter-atrial septum of the right atrium through the left femoral vein to electrically induce paroxysmal atrial fibrillation as described below. The optimal sites of each catheter were determined by the temporal relationship between the bipolar atrial electrograms from the distal electrodes pair and P wave of the electrocardiogram. […]

Setting [5] is: high dose 3 mg/kg i.v., for 10-60 min.

T1 sequence (P20815 whole entry): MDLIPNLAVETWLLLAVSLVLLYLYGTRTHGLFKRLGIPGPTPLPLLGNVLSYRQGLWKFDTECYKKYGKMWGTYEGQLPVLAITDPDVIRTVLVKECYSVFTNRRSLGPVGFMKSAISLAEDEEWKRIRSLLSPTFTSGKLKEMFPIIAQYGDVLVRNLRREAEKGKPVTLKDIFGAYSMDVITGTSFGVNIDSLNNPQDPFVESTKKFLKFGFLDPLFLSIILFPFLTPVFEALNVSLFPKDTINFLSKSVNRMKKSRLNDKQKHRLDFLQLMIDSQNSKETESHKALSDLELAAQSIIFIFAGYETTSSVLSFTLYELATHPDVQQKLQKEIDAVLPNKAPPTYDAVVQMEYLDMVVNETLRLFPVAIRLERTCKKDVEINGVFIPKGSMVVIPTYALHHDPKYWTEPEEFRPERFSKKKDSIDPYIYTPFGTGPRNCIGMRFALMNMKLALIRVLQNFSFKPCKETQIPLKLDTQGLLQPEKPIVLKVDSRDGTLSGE

As for `CCCCc1oc2ccc(NS(C)(=O)=O)cc2c1C(=O)c1ccc(OCCCN(CCCC)CCCC)cc1.Cl` [Dronedarone], in series [1], the “CLint CYP3A5 reported by Hong et al” value was 2.604 µL/min/pmol. In series [2] (6 h exposure, read-out: cytotoxicity EC50 (bis-AAF-R110 dead-cell protease fluorescence)), the EC50 came to 1200 nM. The “increase in the protease activity (cell death)” value in series [2] (no pre-treatment with EETs) is 150-200%. Further, the EC50 at 6 h in series [3] came out at 1210 nM.
As to `Cl.[2H]c1c(NS(C)(=O)=O)c([2H])c2c(C(=O)c3ccc(OCCCN(CCCC)CCCC)cc3)c(CCCC)oc2c1[2H]` [Poyendarone, Methanesulfonamide, N-(2-butyl-3-(4-(3-(dibutylamino)propoxy)benzoyl)-1-benzo(4,6,7-d3)-furan-5-yl)hydrochloride], the “lethal ventricular arrhythmias or hemodynamic collapse” value in series [4] (0.3 and 3 mg/kg i.v., experimental period) is “No animals exerted any lethal ventricular arrhythmias or hemodynamic collapse leading to their death”. The “duration of atrial fibrillation after burst pacing (typical tracing)” value in series [4] (20 min after 3 mg/kg, pre-drug control 6.9 s) turned out to be 1.8 s. Moreover, in series [4] (high dose 3 mg/kg i.v.), the “effect on AERP(CL200)” value is reported as “no significant change”; the “effect on VERP(CL400)” value is reported as “no significant change”; the “effect on cycle length of atrial fibrillation” value is “tended to be prolonged, which did not achieve statistical significance”; the “effect on mean blood pressure” value is “hardly altered”. Further, the “effect on sinoatrial rate” value in series [4] (high dose 3 mg/kg i.v.) was “hardly altered”. In series [4] (high dose 3 mg/kg i.v., at 10 min), the “effect on IACT(CL300)” value was “prolonged”. For the same compound, in series [4] (high dose 3 mg/kg i.v., at 10 min and for 30-60 min), the “effect on IACT(CL400)” value is “prolonged”. In series [4] (setting [5]), the “effect on AERP(CL300)” value is “prolonged”, the “effect on AERP(CL400)” value is reported as “prolonged”, the “effect on IACT(CL200)” value was “prolonged” and the “effect on duration of atrial fibrillation” value is “shortened”. In series [4] (low dose 0.3 mg/kg i.v.), the “effect on AERP(CL200)” value is “no significant change”, the “effect on AERP(CL300)” value is “no significant change”, the “effect on IACT(CL200)” value is “did not alter” and the “effect on IACT(CL300)” value was “did not alter”. In addition, in series [4] (low dose 0.3 mg/kg i.v.), the “effect on IACT(CL400)” value is “did not alter”, the “effect on VERP(CL400)” value was “no significant change”, the “effect on cycle length of atrial fibrillation” value was “did not alter” and the “effect on duration of atrial fibrillation” value is listed as “did not alter”. For the same compound, in series [4] (low dose 0.3 mg/kg i.v.), the “effect on mean blood pressure” value is on record as “hardly altered” and the “effect on sinoatrial rate” value is “hardly altered”. The “effect on AERP(CL400)” value in series [4] (low dose 0.3 mg/kg i.v., at 20 min) is “prolonged”.
